Experimental data as given in patent publication US20230233533A1, “COMPOSITIONS, METHODS OF TREATING AND PREVENTING FUNGAL INFECTIONS, AND METHODS OF INHIBITING PRP8 INTEIN EXPRESSION” (Health Research, Inc., priority 2020, published 2023).
In brackets after ≈: the same amount, converted by molar mass.

How the values were obtained:
[1] = test system: C. neoformans H99 strain; experiment: Fungal susceptibility test, broth microdilution MIC; format: cell-based, Cryptococcus neoformans; conditions: Cryptococcus neoformans, H99STRAIN; C. neoformans H99, microbroth dilution; read-out: MIC H99
Procedure: Fungal susceptibility test—The fungal susceptibility test was carried out with a compound concentration series as described. […] The broth microdilution method was used to determine the compound MIC values against C. neoformans.
Fungal susceptibility test—The fungal susceptibility test was carried out with a compound concentration series as described. […] Microbes. Infect. […] The broth microdilution method was used to determine the compound MIC values against C. neoformans.

[2] = molecular target: T1, Prp8 intein (Cryptococcus gattii, UniProt E6R027); experiment: Split Cys-free (Cf) GFP-Prp8 intein splicing assay; format: biochemical; conditions: read-out: IC50 CfGFP-Prp8 (converted)
T1 sequence (E6R027 entry or part of it): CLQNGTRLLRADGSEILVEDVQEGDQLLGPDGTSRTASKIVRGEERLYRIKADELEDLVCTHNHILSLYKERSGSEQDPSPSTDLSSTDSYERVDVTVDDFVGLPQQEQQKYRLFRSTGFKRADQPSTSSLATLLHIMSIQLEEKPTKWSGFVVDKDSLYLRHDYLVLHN
Procedure: (§1) The constructs for Cys-free (Cf) GFP-Prp8 and Cys-free nanoluciferase NnLuc-Prp8 were codon-optimized, synthesized, and cloned into the pET28a vector using the NcoI and XhoI sites by Gene Universal (Gene Universal, Newark Del.). […] The expression, refolding and purification of the CfGFP-Prp8 and NnLuc-Prp8 fusion proteins were carried out as described previously. […] Microbes. Infect.
Split GFP-Prp8 and CJGFP-Prp8 intein splicing assays—Using black and clear bottom 96-well plates, the DPNB-treated, -refolded and -concentrated GFP-Prp8 or CfGFP-Prp8 fusion protein (0.5 μM) was incubated with compounds or Dimethylsulfoxide (DMSO) solvent control for 30 min at 25° C. in a 100 μl intein splicing buffer (20 mM Bis-tris propane, 0.5 M NaCl, 0.5 M arginine, 1 mM EDTA, and 0.05% CHAPS). Then 100 μl 2×TCEP was added to a final concentration of 20 μM. The reactions were incubated at 25° C. overnight. […] Two readings were taken, one prior to addition of TCEP (I0) and one after incubation overnight with TCEP (If). Fluorescence/luminescence differences (ΔFluorescence or ΔLuminescence) were defined as If−I0 for each well. […] DMSO control served as 100% splicing activity.

[3] = molecular target: T1, Prp8 intein; experiment: Split nanoluciferase NnLuc-Prp8 intein splicing assay; format: biochemical
Procedure: as §1
Split luciferase RLuc-Prp8 and NnLuc-Prp8 intein splicing assays—The split RLuc-Prp8 intein splicing assay was carried out and monitored using a Veritas luminometer, as described previously. […] Microbes. Infect. […] For NnLuc-Prp8 intein splicing assay, the NnLuc-prp8 is diluted in assay buffer (50 mM Tris, 0.1% BSA, 1 mM EDTA, pH 7.4) and 50 ul is added to each well in 96 well black plates. Test molecules or the solvent was added and incubated for 30 to 60 min. A splicing inducer TCEP (50 ul, 100 μM) is added and incubated for 24 h. Luciferase substrate (Furimazine, 25 ul 1:10,000 diluted) is added and luminescence is read using a luminescence reader. IC50 is calculated using Graphpad prism.

[4] = in vitro; format: cell-based, human; conditions: human, CC50 A549
Procedure: Cytotoxicity—Cytotoxicity assays were carried out using human lung carcinoma cell line A549, as described (Chen et al., “Selective Inhibition of the West Nile Virus Methyltransferase by Nucleoside Analogs,” Antiviral Research 97(3):232-239 (2013), which is hereby incorporated by reference in its entirety). Briefly, the A549 cells (5×10^3) were incubated with/without compounds in a 96-well plate at 37° C. for 48 h. Cell viability was determined using the MTT assay (ATCC) as was described previously (Chen et al., “Selective Inhibition of the West Nile Virus Methyltransferase by Nucleoside Analogs,” Antiviral Research 97(3):232-239 (2013) and Brecher et al., “Identification and Characterization of Novel Broad-Spectrum Inhibitors of the Flavivirus Methyltransferase,” ACS Infectious Diseases 1(8):340-349 (2015), both of which are hereby incorporated by reference in their entirety). N=3.
Cytotoxicity—Cytotoxicity assays were carried out using human lung carcinoma cell line A549, as described. Chen et al., “Selective Inhibition of the West Nile Virus Methyltransferase by Nucleoside Analogs,” Antiviral Res. 97:232-9 (2013), which is hereby incorporated by reference in its entirety. Briefly, the A549 cells (5×10^3) were incubated with/without compounds in a 96-well plate at 37° C. for 48 h. Cell viability was determined using the MTT assay (ATCC) as was described previously (Chen et al., “Selective Inhibition of the West Nile Virus Methyltransferase by Nucleoside Analogs,” Antiviral Research 97(3):232-239 (2013) and Brecher et al., “Identification and Characterization of Novel Broad-Spectrum Inhibitors of the Flavivirus Methyltransferase,” ACS Infectious Diseases 1(8):340-349 (2015), both of which are hereby incorporated by reference in their entirety). N=3.

SMILES	MIC [1] [µM]	IC50 [2] [µM]	IC50 [3] [µM]	CC50 at 48 h [4] [µM]
O=C(Nc1cc(F)cc(Cl)c1)c1nnsc1S(=O)(=O)c1ccc(Cl)cc1 [JMX1036, N-(3-Chloro-5-fluorophenyl)-5-((4-chlorophenyl)sulfonyl)-1,2,3-thiadiazole-4-carboxamide]	1.56 (≈ 0.674 µg/mL)	32.9	21.4	70.9
Cc1ccc(NC(=O)c2nnsc2S(=O)(=O)c2ccc(Cl)cc2)cc1 [JMX1033, 5-((4-chlorophenyl)sulfonyl)-N-(p-tolyl)-1,2,3-thiadiazole-4-carboxamide]	> 50	35.2	45.9	156
O=C(Nc1ccc(C(F)(F)F)cc1Cl)c1nnsc1S(=O)(=O)c1ccc(Cl)cc1 [JMX1042, N-(2-Chloro-4-(trifluoromethyl)phenyl)-5-((4-chlorophenyl)sulfonyl)-1,2,3-thiadiazole-4-carboxamide]	> 50	41.5	10.9	98.7
O=C(Nc1cc(F)c(F)c(F)c1)c1nnsc1[S+]([O-])c1ccc(Cl)cc1 (stereo not drawn) [JMX1044-2, 5-((4-Chlorophenyl)sulfinyl)-N-(3,4,5-trifluorophenyl)-1,2,3-thiadiazole-4-carboxamide]	> 50	26.9	4.4	47.5
O=C(Nc1ccc(F)cc1)c1nnsc1[S+]([O-])c1cccc(C(F)(F)F)c1 (stereo not drawn) [JMX1063-2, N-(4-Fluorophenyl)-5-((3-(trifluoromethyl)phenyl)sulfinyl)-1,2,3-thiadiazole-4-carboxamide]	6.25 (≈ 2.6 µg/mL)	29.2	12.4	93.8
O=C(Nc1ccc(Cl)c(F)c1)c1nnsc1[S+]([O-])c1ccc(Cl)cc1 (stereo not drawn) [JMX1046-2, N-(4-Chloro-3-fluorophenyl)-5-((4-chlorophenyl)sulfinyl)-1,2,3-thiadiazole-4-carboxamide]	1.56 (≈ 0.649 µg/mL)	32.2	7.5	149
O=C(Nc1ccccc1F)c1nnsc1S(=O)(=O)c1ccc(Cl)cc1 [JMX872, 5-((4-Chlorophenyl)sulfonyl)-N-(2-fluorophenyl)-1,2,3-thiadiazole-4-carboxamide]	> 50	28.3	31.8	162
O=C(Nc1ccc(F)c(F)c1)c1nnsc1S(=O)(=O)c1ccc(Cl)cc1 [JMX876, 5-((4-Chlorophenyl)sulfonyl)-N-(3,4-difluorophenyl)-1,2,3-thiadiazole-4-carboxamide]	3.12 (≈ 1.3 µg/mL)	33.5	22	163
O=C(Nc1ccc(F)cc1)c1nnsc1S(=O)(=O)c1ccc(F)cc1F [JMX1062, 5-((2,4-Difluorophenyl)sulfonyl)-N-(4-fluorophenyl)-1,2,3-thiadiazole-4-carboxamide]	> 50	38.2	21.7	65.4
O=C(Nc1ccc(F)cc1)c1nnsc1S(=O)(=O)c1ccc(F)cc1 [JMX1061, N-(4-Fluorophenyl)-5-((4-fluorophenyl)sulfonyl)-1,2,3-thiadiazole-4-carboxamide]	> 50	51.3	23.7	71.7
O=C(Nc1ccc(F)cc1)c1nnsc1S(=O)(=O)c1ccc(Cl)c(Cl)c1 [JMX1064, 5-((3,4-Dichlorophenyl)sulfonyl)-N-(4-fluorophenyl)-1,2,3-thiadiazole-4-carboxamide]	1.56 (≈ 0.674 µg/mL)	32.6	26	78.4
O=C(Nc1cccc(F)c1)c1nnsc1S(=O)(=O)c1ccc(Cl)cc1 [JMX 871, 5-((4-Chlorophenyl)sulfonyl)-N-(3-fluorophenyl)-1,2,3-thiadiazole-4-carboxamide]	3.12 (≈ 1.24 µg/mL)	35.4	27.1	140
O=C(Nc1ccccc1)c1nnsc1S(=O)(=O)c1ccc(Cl)cc1 [JMX1035, 5-((4-Chlorophenyl)sulfonyl)-N-phenyl-1,2,3-thiadiazole-4-carboxamide]	6.25 (≈ 2.37 µg/mL)	38.4	33.9	84.1
O=C(Nc1ccc(F)cc1)c1nnsc1S(=O)(=O)c1cccc(C(F)(F)F)c1 [JMX1063, N-(4-Fluorophenyl)-5-((3-(trifluoromethyl)phenyl)sulfonyl)-1,2,3-thiadiazole-4-carboxamide]	6.25 (≈ 2.7 µg/mL)	35	28.2	137
O=C(Nc1c(F)cc(F)cc1F)c1nnsc1[S+]([O-])c1ccc(Cl)cc1 (stereo not drawn) [JMX1045-2, 5-((4-Chlorophenyl)sulfinyl)-N-(2,4,6-trifluorophenyl)-1,2,3-thiadiazole-4-carboxamide]	3.12 (≈ 1.3 µg/mL)	27.4	8.6	61
O=C(Nc1cc(F)c(F)c(F)c1)c1nnsc1S(=O)(=O)c1ccc(Cl)cc1 [JMX1044, 5-((4-Chlorophenyl)sulfonyl)-N-(3,4,5-trifluorophenyl)-1,2,3-thiadiazole-4-carboxamide]	> 50	31.8	16.3	47.8
O=C(Nc1ccc([N+](=O)[O-])cc1F)c1nnsc1S(=O)(=O)c1ccc(Cl)cc1 [JMX1043, 5-((4-Chlorophenyl)sulfonyl)-N-(2-fluoro-4-nitrophenyl)-1,2,3-thiadiazole-4-carboxamide]	> 50	38.1	19.6	66.9
O=C(Nc1ccc(F)cc1)c1nnsc1[S+]([O-])c1ccc(Cl)c(Cl)c1 (stereo not drawn) [JMX1064-2, 5-((3,4-Dichlorophenyl)sulfinyl)-N-(4-fluorophenyl)-1,2,3-thiadiazole-4-carboxamide]	> 50	19.8	35	122
O=C(Nc1cc(C(F)(F)F)cc(C(F)(F)F)c1)c1nnsc1S(=O)(=O)c1ccc(Cl)cc1 [JMX1041, N-(3,5-Bis(trifluoromethyl)phenyl)-5-((4-chlorophenyl)sulfonyl)-1,2,3-thiadiazole-4-carboxamide]	> 50	37.9	18.5	66.7
O=C(Nc1ccc(Cl)c(F)c1)c1nnsc1S(=O)(=O)c1ccc(Cl)cc1 [JMX1046, N-(4-Chloro-3-fluorophenyl)-5-((4-chlorophenyl)sulfonyl)-1,2,3-thiadiazole-4-carboxamide]	> 50	34.1	20.1	145
O=C(Nc1ccc(F)cc1)c1nnsc1S(=O)(=O)c1ccc(F)c(F)c1 [JMX1060, 5-((3,4-Difluorophenyl)sulfonyl)-N-(4-fluorophenyl)-1,2,3-thiadiazole-4-carboxamide]	50 (≈ 20 µg/mL)	32.8	23.5	61.1
